Results published in PMC8151276, “An Integrated Approach toward NanoBRET Tracers for Analysis of GPCR Ligand Engagement” (Molecules, 2021).

Target: T1, HTR2C (Homo sapiens, UniProt P28335)
T1 construct: purchased Promega (in-house HiBiT-GPCR construct library, NanoBRET)
T1 sequence (P28335 33-458): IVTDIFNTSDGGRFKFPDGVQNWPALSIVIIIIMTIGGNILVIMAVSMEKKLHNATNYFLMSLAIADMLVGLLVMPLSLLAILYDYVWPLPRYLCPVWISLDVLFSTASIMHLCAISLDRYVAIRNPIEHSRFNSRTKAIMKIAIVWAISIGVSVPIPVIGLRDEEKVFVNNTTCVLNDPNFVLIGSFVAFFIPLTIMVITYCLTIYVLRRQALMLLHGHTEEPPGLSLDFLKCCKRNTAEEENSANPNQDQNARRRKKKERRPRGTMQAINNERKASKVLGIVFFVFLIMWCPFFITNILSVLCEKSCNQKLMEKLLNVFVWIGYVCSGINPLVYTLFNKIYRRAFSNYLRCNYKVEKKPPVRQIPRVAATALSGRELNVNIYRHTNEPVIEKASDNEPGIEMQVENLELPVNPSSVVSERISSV
Assay: NanoBRET screen HiBiT-HTR2C in HEK293
Type: binding
Protocol: Each tracer candidate was screened across the entire library of HiBiT-GPCR constructs using NanoBRET as the detection modality. As depicted in Figure 4A, the specificity of interactions was evaluated through decrease in BRET due to competitive displacement of a bound tracer by excess parental compound. Each tracer was analyzed for binding to each HiBiT-GPCR fusion in the absence and in the presence of competing parental compound. Briefly, HEK293 cells were transfected with HiBiT-GPCR constructs diluted into promoterless DNA to reduce expression and maximize translocation to the cell surface. Each tracer candidate was then screened at concentrations of 1 μM and 0.1 μM across cells expressing these fusions. Cells were treated for 1.5 h with tracer either alone or in the presence of 20 μM competing parental compound (i.e., control). BRET was measured upon addition of purified LgBiT and subsequent complementation with HiBiT genetically fused to a GPCR. The specificity of interactions was assessed through a decrease in BRET signal due to competitive displacement of the bound tracer. To further gauge the robustness of these interactions, the fold response over the control (i.e., BRETtracer/BRETcontrol) was calculated. We chose a 1.5-fold response, which translates to ≥7-fold signal over noise as the minimal threshold required to score an interaction as positive.
HiBiT-GPCR DNA constructs were diluted in 10 mM Tris pH 8 to a final concentration of 0.01 μg/μL, arrayed in 96-well plates and stored at −20 °C. For transfection, HEK293 cells were suspended in Opti-MEM (without phenol red) supplemented with 2% fetal bovine serum (Seradigm) and 100 units/mL penicillin–streptomycin (Gibco) at a final concentration of 220,000 cells/mL and dispensed into white 96-well plates at 90 μL/well. Subsequent transfections and screens were carried using an Agilent Bravo Automated Liquid Handling Platform. First, the 96-well HiBiT DNA arrays were diluted 25-fold in Opti-MEM (without serum or phenol red) to a final concentration of 0.0004 μg/μL and 20 μL of the diluted DNAs were transferred into new 96-well plates. Next, promoterless carrier DNA (1 μg/μL) was diluted 25-fold (0.04 μg/μL) and then dispensed into the diluted arrays at 20 μL/well. Following brief mixing, Viafect transfection reagent (Promega) diluted 16-fold into Opti-MEM was dispensed into the plates at 40 μL/well. After mixing by pipetting, plates were incubated for 10 min on the pipetting station deck. The DNA-transfection reagent complexes were then added to plates containing cells. To facilitate the screen, 10 μL of DNA-transfection reagent complexes were added in duplicates to the top 4 and bottom 4 rows, resulting in two identical 48-well arrays per plate. Plates with transfected cells were incubated for 18–20 h at 37 °C/5% CO2. A screen of each tracer across the entire library using two different concentrations requires duplicate plates of transfected cells. Depending on the number of tracers being screened, transfections can be scaled up using the same ratios. The next day, for each tracer, four 20× screening solutions in tracer dilution buffer (Promega) were prepared: two duplicates at final concentration of 20 μM and two duplicates at a final concentration of 2 μM. […] The four resulting solutions were diluted 4-fold in Opti-MEM without serum or phenol red to generate 5× solutions (5 µM and 0.5 µM tracer +/− 100 μM competing compound). To screen the library, a BioTek MultiFlo FX liquid dispenser was used to dispense 22.5 µL of tracer solution to the top 4 rows and 22.5 µL tracer + competing compound solution to the 4 bottom rows. Plates were briefly mixed on an orbital shaker and incubated for 1.5 h at room temperature. […] Plates were briefly mixed on an orbital shaker and incubated for 15 min to allow complementation.

| Compound | NanoBRET Fold Response (HTR2C, tracer 0.1μM) | NanoBRET Fold Response (HTR2C, tracer 1μM) | other results |
| --- | --- | --- | --- |
| CN(C)CCC=C1c2ccccc2CCc2ccc(C(=O)NCCNC(=O)CCOCCOCCOCCOCCNC(=O)CCc3ccc4n3[B-](F)(F)[N+]3=C(c5ccc[nH]5)C=CC3=C4)cc21 [Amitriptyline-b-2-NB590] | – | – | NanoBRET Fold Response (tracer at 0.1μM, listed as amitriptyline-b-2-NB590): 1.74; NanoBRET Fold Response (tracer at 1μM, listed as amitriptyline-b-2-NB590): 2.18 |
| CCOC(=O)c1cc(C#N)c(N2CCC(C(=O)NS(=O)(=O)Cc3ccccc3/C=C/C(=O)NCCNC(=O)CCc3ccc4n3[B-](F)(F)[N+]3=C(c5ccc[nH]5)C=CC3=C4)CC2)nc1C [AZD1283-1-NB590] | – | – | NanoBRET Fold Response (HTR2C, 0.1μM): 0.95; NanoBRET Fold Response (HTR2C, 1μM): 1.04 |
| CC(C)N(CC[C@H](c1ccccc1)c1cc(CCNC(=O)CCOCCOCCOCCOCCNC(=O)CCc2ccc3n2[B-](F)(F)[N+]2=C(c4ccc[nH]4)C=CC2=C3)ccc1O)C(C)C [Tolterodine-2-NB590] | 1.09 | 1.01 | – |
| CC(C)N(CC[C@H](c1ccccc1)c1cc(CCNC(=O)c2ccc(CNC(=O)CCc3ccc4n3[B-](F)(F)[N+]3=C(c5ccc[nH]5)C=CC3=C4)cc2)ccc1O)C(C)C [Tolterodine-BZ-NB590] | 0.86 | 1.55 | – |
| O=C(CCOCCOCCOCCOCCNC(=O)CCc1ccc2n1[B-](F)(F)[N+]1=C(c3ccc[nH]3)C=CC1=C2)NCCCN1CCN(C2=Nc3ccccc3Oc3ccc(Cl)cc32)CC1 [Loxapine-a-2-NB590] | 1.60 | 1.62 | – |
| CN(C)CCC=C1c2ccccc2CCc2ccc(C(=O)NCCNC(=O)CCOCCOCCOCCOCCNC(=O)CCc3ccc4n3[B-](F)(F)[N+]3=C(c5ccc[nH]5)C=CC3=C4)cc21 [Amitriptyline-a-2-NB590] | – | – | NanoBRET Fold Response (tracer at 1μM): 1.80 |
| Cc1nc2n(c(=O)c1CCN1CCC(c3noc4cc(F)ccc34)CC1)CCCC2OC(=O)NCCOCCOCCOCCOCCNC(=O)CCc1ccc2n1[B-](F)(F)[N+]1=C(c3ccc[nH]3)C=CC1=C2 (centres unmarked) [Risperidone-2-NB590] | 1.26 | 2.15 | – |
| COc1ccc2[nH]c(-c3ccc(CNC(=O)CCOCCOCCOCCOCCNC(=O)CCc4ccc5n4[B-](F)(F)[N+]4=C(c6ccc[nH]6)C=CC4=C5)cc3)c(CCNC(C)=O)c2n1 [AzomelatoninICO9-2-NB590] | – | – | NanoBRET Fold Response (0.1μM tracer): 1.02; NanoBRET Fold Response (1μM tracer): 1.10 |
| COc1ccccc1N1CCN(CCCCN2C(=O)c3ccc(CNC(=O)CCOCCOCCOCCOCCNC(=O)CCc4ccc5n4[B-](F)(F)[N+]4=C(c6ccc[nH]6)C=CC4=C5)cc3C2=O)CC1 [NAN-190-2-NB590] | 1.00 | 1.14 | – |
| O=C(CCc1ccc2n1[B-](F)(F)[N+]1=C(c3ccc[nH]3)C=CC1=C2)NCCOCCOCCNC(=O)OCCOCCN1CCN(C2=Nc3ccccc3Sc3ccccc32)CC1 [Quetiapine-a-2-NB590] | 0.99 | 1.17 | – |
| O=C(CCOCCOCCOCCOCCNC(=O)CCc1ccc2n1[B-](F)(F)[N+]1=C(c3ccc[nH]3)C=CC1=C2)NCCCN1CCN(C2=Nc3cc(Cl)ccc3Nc3ccccc32)CC1 [Clozapine-a-2-NB590] | – | – | NanoBRET Fold Response (HTR2C, 0.1μM tracer): 1.89; NanoBRET Fold Response (HTR2C, 1μM tracer): 3.22 |
| N#CN=C(NCCCOc1cccc(CN2CCCCC2)c1)NCCNC(=O)CCOCCOCCOCCOCCNC(=O)CCc1ccc2n1[B-](F)(F)[N+]1=C(c3ccc[nH]3)C=CC1=C2 [Aminopotentidine-2-NB590] | 1.01 | 1.04 | – |
| O=C(CCc1ccc2n1[B-](F)(F)[N+]1=C(c3ccc[nH]3)C=CC1=C2)NCc1ccc(C(=O)NCCOCCOCCNCC(O)COc2cccc3ccccc23)cc1 (centres unmarked) [Propranolol-3-NB590] | – | – | NanoBRET Fold Response (HTR2C, 0.1μM): 1.22; NanoBRET Fold Response (HTR2C, 1μM): 1.21 |
| O=C(CCc1ccc2n1[B-](F)(F)[N+]1=C(c3ccc[nH]3)C=CC1=C2)NCc1ccc(C(=O)NCCOCCC(=O)N[C@@H]2CC[C@@]3(O)[C@H]4Cc5ccc(O)c6c5[C@@]3(CCN4CC3CC3)[C@H]2O6)cc1 [Naltrexone-3-NB590] | 0.79 | 1.03 | – |
| COc1ccccc1N1CCN(CCCCN2C(=O)c3ccc(CNC(=O)CCOCCNC(=O)c4ccc(CNC(=O)CCc5ccc6n5[B-](F)(F)[N+]5=C(c7ccc[nH]7)C=CC5=C6)cc4)cc3C2=O)CC1 [NAN-190-3-NB590] | 1.04 | 1.06 | – |
| Cc1cc2c(s1)Nc1ccccc1N=C2N1CCN(CCCNC(=O)CCOCCOCCOCCOCCNC(=O)CCc2ccc3n2[B-](F)(F)[N+]2=C(c4ccc[nH]4)C=CC2=C3)CC1 [Olanzapine-a-2-NB590] | 1.54 | 1.22 | – |
| CCCn1c(=O)c2[nH]c(-c3ccc(OCC(=O)NCCNC(=O)CCOCCNC(=O)c4ccc(CNC(=O)CCc5ccc6n5[B-](F)(F)[N+]5=C(c7ccc[nH]7)C=CC5=C6)cc4)cc3)nc2n(CCC)c1=O [XAC-3-NB590] | 1.45 | 0.88 | – |
| N#CN/C(=N\CCNC(=O)c1ccc(N)cc1)NCCCOc1cccc(CN2CCCCC2)c1 [Aminopotentidine (unmodified)] | – | – | NanoBRET Fold Response (HTR2C, other tracers/Aminopotentidine (unmodified), 0.1μM): 1.48; NanoBRET Fold Response (HTR2C, other tracers/Aminopotentidine (unmodified), 1μM): 1.66 |
| CN(CCC=C1c2ccccc2CCc2ccccc21)C(=O)CCOCCOCCOCCOCCNC(=O)CCc1ccc2n1[B-](F)(F)[N+]1=C(c3ccc[nH]3)C=CC1=C2 [Amitriptyline-e-2-NB590] | – | – | NanoBRET Fold Response (tracer at 1μM): 1.03 |
| COc1ccc2c(n1)c(CCNC(C)=O)cn2CCNC(=O)CCc1ccc2n1[B-](F)(F)[N+]1=C(c3ccc[nH]3)C=CC1=C2 [Azamelatonin-1-NB590] | – | – | NanoBRET Fold Response (0.1μM tracer): 0.91; NanoBRET Fold Response (1μM tracer): 0.91 |
